# Entries after “also recorded” stand apart in the source; their conditions may differ.
# What was measured:
# [1] = tested on: Tobacco (Nicotiana tabacum), Arabidopsis, and bean (Phaseolus vulgaris) plants; assay: Leaf infiltration of extracellular ATP depletion systems, whole plants; assay type: in vivo; conditions: 0.5 units/μL apyrase, 1.85 units/μL hexokinase plus 100 mM glucose, 1-5 mM AMP-PCP (pH 6.5); ATP (pH 6.5)
# Method: (§1) Tobacco (Nicotiana tabacum), Arabidopsis, and bean (Phaseolus vulgaris) plants were sown in soil and raised in a growth cabinet with a 16-hour photoperiod at 20° C. and 8 hours of darkness at 15° C. The relative humidity was maintained at 60% and the photon flux density was 250 μmolm^−2 s^−1. […] Only the cotyledons of bean plants were treated. The abaxial surface of a small zone of leaf tissue was treated by infiltrating the apoplast with the solution using a syringe and hypodermic needle. The three test solutions had the following concentrations of either: 0.5 units/μL apyrase, 1.85 units/μL hexokinase plus 100 mM glucose, or 1-5 mM AMP-PCP (pH 6.5).
# The concentrations used were the same as defined above unless stated otherwise.
# [2] = tested on: Arabidopsis thaliana cell suspension cultures; assay type: cell-based
# Method: A. thaliana cell cultures were grown as described in example 1. Aliquots of the cell suspension (1.5 mL) were treated with a final concentration of 0, 20, 50, or 100 units/mL of apyrase. […] The dead cells had become buoyant and adhered to the walls of the vials, forming a ring just above the edge of the swirling medium. The ring of cells was sometimes dislodged and fell into the medium, resulting in apyrase-treated cultures having flakes of dead cells at the bottom of the vials.
# To quantify the effect of apyrase on cell viability, the ability of the cells to grow and multiply subsequent to treatment was measured after diluting the cultures by over 30 times in fresh medium not containing any additives. This was achieved by transferring the cells treated for 3 days to 50 mL of fresh growth medium and allowing them to grow for a further 4 days. At the end of this period, triplicate 1 mL aliquots were sampled from the cultures and the volume of the cells was measured and expressed as a percentage of the culture volume. The method used to determine the packed cell volume was as follows: 1 mL cell culture aliquots were placed in 1.5 mL microfuge tubes and the cells gently compacted by centrifuging (1000 rpm., 10 minutes) in a swing-out rotor (Grundrotor 11030; Sigma laborzentrifugen GmbH, Oestrode, Germany). The level of the cells was marked on the wall of the tube and the volume of cells determined by measuring the volume of water needed to fill the tube to the marked level. The packed cell volume was expressed as the volume occupied by cells as a percentage of 1000 μL.
# In each case the error bars represent the standard deviation.
# tobacco leaves = assay: Leaf infiltration, tobacco; assay type: in vivo, Nicotiana tabacum; conditions: for local tissue death after infiltration of tobacco leaves: 1 mM AMP-PCP, 1 mM ATP, apyrase, hexokinase plus glucose; for state of tobacco plant after treatment of a leaf: 5 mM AMP-PCP or equivalent amount of ATP, after 4 days
# Method: as §1
# bean plants = assay: Leaf infiltration, bean; assay type: in vivo, Phaseolus vulgaris; conditions: apyrase, hexokinase; 100 mM glucose
# Method: as §1
# [3] = tested on: Arabidopsis thaliana cell suspension cultures; assay: Viability staining with fluorescein diacetate and propidium iodide; assay type: cell-based; conditions: apyrase-treated cultures, 3 days
# Method: The inventors decided to use viability staining to confirm cell death in these cell cultures. To achieve this, […] aliquots were removed from the cultures and the cells resuspended in 0.2M CaCl2 after removal of the growth medium. The aliquots were doubly-stained by incubating for 5 minutes with a final concentration of 25 μg/mL fluorescein diacetate [0.5% (w/v) stock solution in acetone] and 50 μg/mL propidium iodide [10 mg/mL stock solution in phosphate-buffered saline pH 7.4]. […] The viable cells had also excluded propidium iodide, which is non-permeative and can only cross membranes of dead or dying cells. Dead cells had taken up propidium iodide, which binds to DNA, resulting in nuclei emitting a very intense red fluorescence.
# [4] = tested on: Black Mexican sweet corn cells; assay: Cell viability of corn suspension cells; assay type: cell-based, Zea mays; conditions: 1 mM ATP, 1 mM AMP-PCP, 100 units/mL apyrase, 200 units/mL hexokinase; 100 mM glucose in culture
# tobacco plants = assay: Foliar spray on soil-grown tobacco plants; conditions: 5 mM in 0.02% Tween 20, 2 mL spray, three days after treatment
# [5] = tested on: Arabidopsis cell cultures; assay: H2O2 accumulation after elicitor treatment; assay type: cell-based; conditions: exogenous ATP with elicitor
# Arabidopsis plants [6] = assay: Foliar spray application, herbicidal activity; assay type: in vivo; conditions: 2 mL spray, 5 mM active ingredient, 0.02% (v/v) Tween 20, pH 6.7
# Method: The inventors tested a range of compounds for their potential herbicidal activity. These consisted of several nonhydrolysable ATP analogues as well as nonhydrolysable analogues of GTP, another nucleotide triphosphate. Arabidopsis plants were grown hydroponically for 2 weeks as described in Example 6B. These plants, still attached to the polyurethane foam discs, were then transferred to phytatrays that contained sand. Plants grown under high humidity conditions, achieved in these enclosed phytatrays, tend to have poor or no development of the waxy cuticle and so are ideal for spray application of solutions with the aid of common surfactants like Tween 20. The plants in each tray were sprayed with 2 mL of an aqueous solution adjusted to pH 6.7 with KOH and containing 5 mM active ingredient and 0.02% (v/v) Tween 20. Control plants were sprayed with the same solution containing only Tween 20 but no active ingredient.
# [7] = tested on: Arabidopsis cell cultures; assay: MTT assay of cell viability after elicitor or bacteria with or without ATP; assay type: cell-based; conditions: 1 mM ATP, 24 hours
# Arabidopsis plants [8] = conditions: adding exogenous ATP; cited from earlier work
Compound,necrotic lesions after local leaf infiltration [1],loss in viability [2],"cell death seen in cultures ([2]; 20, 50 or 100 units/mL apyrase, incubated for 3 days)","cell viability with increasing concentration (dose-response), in words ([2]; apyrase 0-100 units/mL, hexokinase 0-200 units/mL with 100 mM glucose, AMP-PCP 0-1.5 mM)",local tissue death after infiltration of tobacco leaves (tobacco leaves),state of tobacco plant after treatment of a leaf (tobacco leaves),necrotic lesions on bean leaves (bean plants),dead cells by viability staining [3],viability of corn cells [4],"cell viability / cell death, in words ([2]; ADP 1 mM, AMP 1 mM, ATP 1 mM, glucose-6-phosphate 100 mM, boiled apyrase 50 units/ml, boiled hexokinase 200 units/ml with 100 mM glucose)",state of tobacco plants (tobacco plants),H2O2 accumulation [5],Effects on Arabidopsis plants after foliar application (Arabidopsis plants [6]),effect of exogenous ATP on reduction in cell viability caused by Ps. syringae or Fusarium elicitor [7],resistance of plants to xenobiotics (Arabidopsis plants [8])
apyrase,development of necrotic lesions in the area where the application was made within 2 days of treatment; also recorded: localised necrotic lesions,over 80%,showed a significant frequency of cell death,progressive decrease in cell viability,development of localised necrotic lesions,Comparable results,development of necrotic lesions on leaves,significantly high proportion of cells in the apyrase-treated cell cultures was dead,caused significant cell death,,,,,,
Nc1ncnc2c1ncn2[C@@H]1O[C@H](COP(=O)(O)OP(=O)(O)OP(=O)(O)O)[C@@H](O)[C@H]1O [ATP],did not result in cell death,,,,did not,remained entirely healthy,,,did not affect the viability of the cells,did not cause death of treated cells,unaffected,failed to prevent H2O2 accumulation,remained healthy and None,substantially negated,decreased the resistance of plants to xenobiotics

# — patent US20060265776A1, “Viability” (priority 2003, published 2006)
